In patent US10428080B2, “TBK/IKK inhibitor compounds and uses thereof” (Merck Patent GmbH, priority 2015, dated 2019):
Counter-ions that a name gives are not always drawn.

Tests used:
[1] = target: T1, TBK1 (Homo sapiens, UniProt Q9UHD2); test: TBK Biochemical Assay; conditions: read-out: TBK1 IC50
T1 sequence (Q9UHD2 1-729): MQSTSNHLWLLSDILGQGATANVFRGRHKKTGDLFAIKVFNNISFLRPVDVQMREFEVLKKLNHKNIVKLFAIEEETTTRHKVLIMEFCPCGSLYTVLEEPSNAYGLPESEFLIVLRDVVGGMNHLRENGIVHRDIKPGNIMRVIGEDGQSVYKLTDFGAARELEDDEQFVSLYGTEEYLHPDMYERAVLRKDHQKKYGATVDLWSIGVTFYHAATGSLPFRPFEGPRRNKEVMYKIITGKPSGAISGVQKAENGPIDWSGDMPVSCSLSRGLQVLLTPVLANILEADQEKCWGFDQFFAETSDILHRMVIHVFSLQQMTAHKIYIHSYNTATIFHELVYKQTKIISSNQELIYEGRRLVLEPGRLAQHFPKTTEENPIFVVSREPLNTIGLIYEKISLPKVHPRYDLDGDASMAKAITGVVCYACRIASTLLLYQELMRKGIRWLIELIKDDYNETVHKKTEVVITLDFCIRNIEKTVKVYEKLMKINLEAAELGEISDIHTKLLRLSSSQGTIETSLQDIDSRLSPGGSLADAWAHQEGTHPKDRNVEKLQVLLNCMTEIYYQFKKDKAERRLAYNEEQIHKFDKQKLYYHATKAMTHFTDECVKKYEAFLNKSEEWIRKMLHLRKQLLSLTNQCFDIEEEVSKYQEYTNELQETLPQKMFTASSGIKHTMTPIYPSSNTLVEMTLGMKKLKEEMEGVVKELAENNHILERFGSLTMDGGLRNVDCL
Outline: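 Caliper LabChip mobility-shift readout of substrate and product after 90 min of TBK1 reaction at 25° C and stop-buffer addition. Compounds tested in 1:4 serial dilution over 10 points from 30 uM final at 1% DMSO; staurosporine 10 uM final defines full inhibition.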

[2] = target: T2, IKKε (Homo sapiens, UniProt Q14164); test: IKKe Biochemical Assay; conditions: read-out: IKKε IC50
T2 sequence (Q14164 1-716): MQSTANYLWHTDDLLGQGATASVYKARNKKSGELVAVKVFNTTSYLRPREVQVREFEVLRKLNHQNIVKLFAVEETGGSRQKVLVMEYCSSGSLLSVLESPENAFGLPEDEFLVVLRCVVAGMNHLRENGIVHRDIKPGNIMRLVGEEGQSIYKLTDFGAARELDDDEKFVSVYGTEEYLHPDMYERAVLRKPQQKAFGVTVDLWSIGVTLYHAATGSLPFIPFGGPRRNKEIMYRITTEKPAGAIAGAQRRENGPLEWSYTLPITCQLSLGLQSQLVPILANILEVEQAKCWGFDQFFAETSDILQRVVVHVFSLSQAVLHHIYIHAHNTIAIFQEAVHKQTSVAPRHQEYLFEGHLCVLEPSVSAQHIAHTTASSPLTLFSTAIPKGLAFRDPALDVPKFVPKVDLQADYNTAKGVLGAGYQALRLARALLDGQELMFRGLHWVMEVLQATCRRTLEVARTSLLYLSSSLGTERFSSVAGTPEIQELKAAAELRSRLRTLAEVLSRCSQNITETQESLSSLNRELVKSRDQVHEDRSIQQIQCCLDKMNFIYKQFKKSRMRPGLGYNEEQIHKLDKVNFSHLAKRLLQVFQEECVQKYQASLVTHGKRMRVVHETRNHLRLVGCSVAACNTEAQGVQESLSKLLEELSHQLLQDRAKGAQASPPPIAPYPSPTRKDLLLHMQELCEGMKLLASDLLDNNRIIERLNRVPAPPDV
Outline: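 Activity was measured as mobility-shift separation of phosphorylated from unphosphorylated substrate on a LabChip EZ Reader. Compound was titrated from 30 uM final in 10 points, 1:4 steps, with 1% DMSO, and enzyme plus substrate reacted 90 min at 25° C before stop buffer. Control wells held 10 uM staurosporine.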

[3] = test system: phosphorylation of the IRF-3 protein in MDA-MB-468 cells; test: pIRF3 immunocytochemistry cell based assay; conditions: Homo sapiens; MDA-MB-468 cells, Poly(I:C) stimulation; read-out: pIRF3 IC50
Outline: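 After 2 h stimulation with Poly(I:C) (10 ug/ml), following 1 h compound pre-treatment (10-point, 3-fold dilution, top 10 uM), MDA-MB-468 cells were fixed and stained with anti-pIRF3 antibody. pIRF3 fluorescence was normalized to PI staining or cell count on an Acumen cytometer. IC50 curves were derived from this.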

Row | IC50 [1] [µM] | IC50 [2] [µM] | IC50 [3] [µM] | Compound
1 | < 0.1 | < 0.1 | 0.1 to 1 | COc1cc(C(=O)N2CCC3(CC2)NCNC3=O)ccc1-c1cc2nccc(-c3ccc(NC4CCOCC4)c(C#N)c3)c2o1 [Compound 34, 5-{2-[2-Methoxy-4-(4-oxo-1,3,8-triaza-spiro[4.5]decane-8-carbonyl)-phenyl]-furo[3,2-b]pyridin-7-yl}-2-(tetrahydro-pyran-4-ylamino)-benzonitrile]
2 | < 0.1 | < 0.1 | 0.1 to 1 | COc1cc(C(=O)N(C)C)ccc1-c1cc2nccc(-c3ccc(N4CCC(F)C4)c(C#N)c3)c2o1 (stereo not drawn) [Compound 35]
3 | < 0.1 | < 0.1 | 0.1 to 1 | COc1cc(C(=O)N(C)C)ccc1-c1cc2nccc(-c3ccc(NCC4CCOC4)c(C#N)c3)c2o1 (stereo not drawn) [Compound 36]
4 | < 0.1 | < 0.1 | 0.1 to 1 | COc1cc(C(=O)N2CCCC2)ccc1-c1cc2nccc(-c3ccc(OC4CCOCC4)c(C#N)c3)c2o1 [Compound 37, 5-{2-[2-Methoxy-4-(pyrrolidine-1-carbonyl)-phenyl]-furo[3,2-b]pyridin-7-yl}-2-(tetrahydro-pyran-4-yloxy)-benzonitrile]
5 | < 0.1 | < 0.1 | 0.1 to 1 | COc1cc(C(=O)N2CC(CO)C2)ccc1-c1cc2nccc(-c3ccc(OC4CCOCC4)c(C#N)c3)c2o1 [Compound 38, 5-{2-[4-(3-Hydroxymethyl-azetidine-1-carbonyl)-2-methoxy-phenyl]-furo[3,2-b]pyridin-7-yl}-2-(tetrahydro-pyran-4-yloxy)-benzonitrile]
6 | < 0.1 | < 0.1 | 0.1 to 1 | COc1cc(C(=O)N2CC(O)C2)ccc1-c1cc2nccc(-c3ccc(OC4CCOCC4)c(C#N)c3)c2o1 [Compound 39, 5-{2-[4-(3-Hydroxy-azetidine-1-carbonyl)-2-methoxy-phenyl]-furo[3,2-b]pyridin-7-yl}-2-(tetrahydro-pyran-4-yloxy)-benzonitrile]
7 | < 0.1 | < 0.1 | 0.1 to 1 | COc1cc(C(N)=O)ccc1-c1cc2nccc(-c3ccc(OC4CCOCC4)c(C#N)c3)c2o1 [Compound 40, 4-{7-[3-Cyano-4-(tetrahydro-pyran-4-yloxy)-phenyl]-furo[3,2-b]pyridin-2-yl}-3-methoxy-benzamide]
8 | < 0.1 | < 0.1 | 0.1 to 1 | COc1cc(C(=O)N2CC[C@@H](O)C2)ccc1-c1cc2nccc(-c3ccc(OC4CCOCC4)c(C#N)c3)c2o1 [Compound 43, 5-{2-[4-((R)-3-Hydroxy-pyrrolidine-1-carbonyl)-2-methoxy-phenyl]-furo[3,2-b]pyridin-7-yl}-2-(tetrahydro-pyran-4-yloxy)-benzonitrile]
9 | < 0.1 | < 0.1 | 0.1 to 1 | COc1cc(C(=O)N2CCC(F)(F)C2)ccc1-c1cc2nccc(-c3ccc(OC4CCOCC4)c(C#N)c3)c2o1 [Compound 45, 5-{2-[4-(3,3-Difluoro-pyrrolidine-1-carbonyl)-2-methoxy-phenyl]-furo[3,2-b]pyridin-7-yl}-2-(tetrahydro-pyran-4-yloxy)-benzonitrile]
10 | < 0.1 | < 0.1 | 0.1 to 1 | COc1cc(C(=O)N2CC3CCC(C2)O3)ccc1-c1cc2nccc(-c3ccc(NC4CCOCC4)c(C#N)c3)c2o1 [Compound 46, 5-{2-[2-Methoxy-4-(8-oxa-3-aza-bicyclo[3.2.1]octane-3-carbonyl)-phenyl]-furo[3,2-b]pyridin-7-yl}-2-(tetrahydro-pyran-4-ylamino)-benzonitrile]
11 | < 0.1 | < 0.1 | 0.1 to 1 | COc1cc(C(=O)N2CC[C@H](N(C)C)C2)ccc1-c1cc2nccc(-c3ccc(N4CC[C@H](F)C4)c(C#N)c3)c2o1 [Compound 47, 5-{2-[4-((S)-3-Dimethylamino-pyrrolidine-1-carbonyl)-2-methoxy-phenyl]-furo[3,2-b]pyridin-7-yl}-2-((S)-3-fluoro-pyrrolidin-1-yl)-benzonitrile]
12 | < 0.1 | < 0.1 | 0.1 to 1 | COc1cc(C(=O)NC[C@@H](O)CO)ccc1-c1cc2nccc(-c3ccc(OC4CCOCC4)c(C#N)c3)c2o1 [Compound 49, 4-{7-[3-Cyano-4-(tetrahydro-pyran-4-yloxy)-phenyl]-furo[3,2-b]pyridin-2-yl}-N—((R)-2,3-dihydroxy-propyl)-3-methoxy-benzamide]
13 | < 0.1 | < 0.1 | 0.1 to 1 | COc1cc(-c2n[nH]c(=O)o2)ccc1-c1cc2nccc(-c3ccc(OC4CCOCC4)c(C#N)c3)c2o1 [Compound 50, 5-{2-[2-Methoxy-4-(5-oxo-4,5-dihydro-[1,3,4]oxadiazol-2-yl)-phenyl]-furo[3,2-b]pyridin-7-yl}-2-(tetrahydro-pyran-4-yloxy)-benzonitrile]
14 | < 0.1 | < 0.1 | 0.1 to 1 | COc1cc(C(=O)NC2(CO)COC2)ccc1-c1cc2nccc(-c3ccc(OC4CCOCC4)c(C#N)c3)c2o1 [Compound 51, 4-{7-[3-Cyano-4-(tetrahydro-pyran-4-yloxy)-phenyl]-furo[3,2-b]pyridin-2-yl}-N-(3-hydroxymethyl-oxetan-3-yl)-3-methoxy-benzamide]
15 | < 0.1 | < 0.1 | 0.1 to 1 | COc1cc(C(=O)N2CCC3(CCNC3=O)CC2)ccc1-c1cc2nccc(-c3ccc(NC4CCOCC4)c(C#N)c3)c2o1 [Compound 52, 5-{2-[2-Methoxy-4-(1-oxo-2,8-diaza-spiro[4.5]decane-8-carbonyl)-phenyl]-furo[3,2-b]pyridin-7-yl}-2-(tetrahydro-pyran-4-ylamino)-benzonitrile]
16 | < 0.1 | < 0.1 | 0.1 to 1 | COc1cc(C(=O)N(C)OC)ccc1-c1cc2nccc(-c3ccc(OC4CCOCC4)c(C#N)c3)c2o1 [Compound 53, 4-{7-[3-Cyano-4-(tetrahydro-pyran-4-yloxy)-phenyl]-furo[3,2-b]pyridin-2-yl}-3,N-dimethoxy-N-methyl-benzamide]
17 | < 0.1 | < 0.1 | 0.1 to 1 | COc1cc(C(=O)N[C@@H]2CCC[C@@H](O)[C@H]2O)ccc1-c1cc2nccc(-c3ccc(OC4CCOCC4)c(C#N)c3)c2o1 [Compound 54, 4-{7-[3-Cyano-4-(tetrahydro-pyran-4-yloxy)-phenyl]-furo[3,2-b]pyridin-2-yl}-N-((1R,2S,3R)-2,3-dihydroxy-cyclohexyl)-3-methoxy-benzamide]
18 | < 0.1 | < 0.1 | < 0.1 | COc1cc(C(=O)N2CC3NCCC32)ccc1-c1cc2nccc(-c3ccc(OC4CCOCC4)c(C#N)c3)c2o1 (stereo not drawn) [Compound 55, 5-{2-[4-(2,6-Diaza-bicyclo[3.2.0]heptane-6-carbonyl)-2-methoxy-phenyl]-furo[3,2-b]pyridin-7-yl}-2-(tetrahydro-pyran-4-yloxy)-benzonitrile hydrochloride]
19 | < 0.1 | < 0.1 | 0.1 to 1 | COc1cc(C(=O)N(C)C)ccc1-c1cc2nccc(-c3ccc(N4CC[C@@H](F)C4)c(C#N)c3)c2o1 [Compound 57, 4-{7-[3-Cyano-4-((R)-3-fluoro-pyrrolidin-1-yl)-phenyl]-furo[3,2-b]pyridin-2-yl}-3-methoxy-N,N-dimethyl-benzamide]
